The text below walks through data of patent US20110077702A1, “Means and Methods for Influencing Electrical Activity of Cells” (Academisch Medisch Centrum Bij de Universiteit van Amsterdam, priority 2008, published 2011).

Where two headings read alike, the source gives them in different places.

For one assay, the system named is LBB preparations. Briefly: Tissue bath studies of LBB preparations of injected animals. Further details: species or system dog.
For assay [1], the system named is neonatal rat cardiac myocytes. Briefly: Spontaneous activity of single control NRCMs with PDE4 inhibition. It is filed as cell-based. Conditions: 100 nM rolipram. How it is done:
(§1) Neonatal rat cardiac myocytes and CMPCs were transduced with LV-HCN4-GFP, TBX3-GFP and LV-GFP at a MOI of 0.1, HEK 293 cells were transfected with both HCN4 and GFP or EVY deleted HCN4 and GFP. Single electrophysiological cell experiments were performed 7-10 days and 2 months after transducing NRCMs and CMPCs, respectively, or after the HEK 293 transfection. Myocytes were trypsinized during 30 seconds to prepare them for patch-clamping. By this procedure, cardiac myocytes lost their cell-to-cell connections, became less flattened (which facilitated the use of glass micropipettes), but remained attached to the coverslip.
Action potentials, If and membrane currents were recorded at 36±0.2° using the perforated patch-clamp technique (Axopatch 200B Clamp amplifier, Axon Instruments Inc.). Signals were low-pass filtered (cut-off frequency: 5-kHz) and digitized at 5-kHz. Series resistance was compensated by ≧80%, and potentials were corrected for the estimated 15-mV change in liquid-junction potential. For voltage control, data acquisition, and analysis, custom-made software was used. Superfusion solution contained (mM): 140 NaCl, 5.4 KCl, 1.8 CaCl2, 1.0 MgCl2, 5.5 glucose, 5 HEPES; pH 7.4 (NaOH). Pipettes (2-3 MΩ, borosilicate glass) were filled with solution containing (mM): 125 K-gluc, 20 KCl, 5 NaCl, 0.22 amphotericin-B, 10 HEPES; pH 7.2 (KOH).

Assay [2] concerns neonatal rat cardiac myocytes overexpressing HCN4. Briefly: If activation curve, perforated patch-clamp, in HCN4 overexpressing NRCMs with PDE4 inhibition. It is filed as cell-based. Particulars: 100 nM rolipram. How it is done: as §1
Action potentials, If and membrane currents were recorded at 36±0.2° using the perforated patch-clamp technique (Axopatch 200B Clamp amplifier, Axon Instruments Inc.). Signals were low-pass filtered (cut-off frequency: 5-kHz) and digitized at 5-kHz. Series resistance was compensated by ≧80%, and potentials were corrected for the estimated 15-mV change in liquid-junction potential. […]
If was characterized using custom voltage-clamp protocols modified from those published previously.^14,27 For current-voltage (I-V) relationships and activation properties, If was measured as Cs^+ sensitive (5 mM) current during 6-s hyperpolarizing steps (range −30 to −110 mV) from a holding potential of −30 mV. […]
In general terms: The patch-clamp technique gives a direct electrical read-out from membranes.

Regarding `CC(C)NCC(O)c1ccc(O)c(O)c1` (stereo not shown) [isoproterenol, Isoproterenol], in the assay on LBB preparations, the “spontaneous rate of HCN2/SkM1 preparation” value is reported as “robust spontaneous activity sensitive to isoproterenol”.

Turning to `COc1ccc(C2CNC(=O)C2)cc1OC1CCCC1` (stereo not shown) [rolipram], in assay [1], the spontaneous activity entry is given as “remarkable increase in spontaneous activity”. Further, in assay [2], the “shift in the If activation curve” value was “rightward shift in the If activation curve”.

For `COc1cc2c(cc1OC)CC(=O)N(CCCN(C)C[C@H]1Cc3cc(OC)c(OC)cc31)CC2` [Ivabradine], the “spontaneous rate of HCN2/SkM1 preparation” value in the assay on LBB preparations (isoproterenol enhanced rhythm, HCN2/SkM1 injected animals) was “reductions in rate”.
